Test systems include MDA-N; NCI-H226; HCT-15; SW-620; SF-539; SR; SF-268; SN12C; TK-10; K562; NCI/ADR-RES; HCT-116; OVCAR-3; RXF 393; T47D; MDA-MB-435; A498; PC-3; HL-60; OVCAR-4.
Test in all cases: inhibition of tumour cell growth, NCI panel, 48 h

Structures are written as SMILES.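 Step 1: Grow cells in 96-well plates. Step 2: Expose to compound for 48 hours at 5 concentrations. Step 3: Interpolate endpoints linearly; if unreached, use highest concentration. GI50: concentration for 50% inhibition of growth.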 Calls of active or inactive are those of the source. Cut-off read from the data, not from the text of the source: active = GI50 up to about 1.1 µM and inactive = higher.

Turning to `C=CCc1cccc(C(=O)/C=C(O)/C=C/c2ccccc2Cl)c1O`, the GI50 was 27.7 µM (inactive) with MDA-N; 18.8 µM (inactive) with NCI-H226; 8.39 µM in the assay on HCT-15; 8.43 µM (inactive) with SW-620; 7.43 µM (inactive) in the assay with SF-539; 4.74 µM (inactive) in the assay on SR. Further, the GI50 in the assay with SF-268 was 20.5 µM (inactive); in the assay on SN12C, 25.6 µM (inactive); with TK-10, 42.7 µM (inactive); in the assay on K562 it was 2.11 µM (inactive); in the assay with NCI/ADR-RES, 11.5 µM (inactive); in the assay with HCT-116, 7.29 µM (inactive). Moreover, the GI50 in the assay with OVCAR-3 was 16.6 µM (inactive); in the assay with RXF 393, 19.5 µM (inactive); in the assay on T47D, 9.48 µM (inactive); with MDA-MB-435, 12.4 µM (inactive); in the assay on A498, 21.2 µM (inactive); in the assay with PC-3, 8.38 µM (inactive).

With `COc1cc(O)cc2oc(-c3ccc(O)cc3)cc(=O)c12`, the GI50 with MDA-N is > 100 µM (inactive); with HCT-15 it was over 100 µM; in the assay with SW-620 it was 49.3 µM (inactive); with SF-539 it was > 100 µM (inactive); in the assay with SR it was 37.8 µM (inactive); in the assay on SF-268, 67.8 µM (inactive). The GI50 with SN12C was > 100 µM (inactive); in the assay on TK-10, > 100 µM (inactive); with K562, > 100 µM (inactive); in the assay with NCI/ADR-RES, > 100 µM (inactive); with HCT-116 it was 44.4 µM (inactive); in the assay with OVCAR-3, > 100 µM (inactive). Moreover, the GI50 was 32.7 µM (inactive) in the assay with RXF 393; 50.4 µM (inactive) in the assay on T47D; > 100 µM (inactive) with MDA-MB-435; > 100 µM (inactive) with HL-60; 29.6 µM (inactive) in the assay on A498; > 100 µM (inactive) in the assay on PC-3.

`CCCCCC/C=C\CCCCCCCCCc1cccc(OC)c1O`: the GI50 in the assay with MDA-N was 85.9 µM (inactive); in the assay on NCI-H226 it was > 100 µM (inactive); in the assay on HCT-15, over 100 µM; with SW-620, > 100 µM (inactive); with SF-539, > 100 µM (inactive); with SR, > 10 µM (inactive). Besides, the GI50 is > 100 µM (inactive) in the assay with SF-268; > 100 µM (inactive) in the assay on SN12C; > 100 µM (inactive) in the assay with TK-10; > 100 µM (inactive) in the assay on K562; 41.2 µM (inactive) in the assay on NCI/ADR-RES; 44.2 µM (inactive) with HCT-116. Further, the GI50 with RXF 393 is 67.6 µM (inactive); with T47D, > 100 µM (inactive); in the assay on MDA-MB-435 it was > 100 µM (inactive); in the assay on HL-60 it was > 100 µM (inactive); with A498 it was 41.2 µM (inactive); in the assay on PC-3, 63.8 µM (inactive).

Regarding `c1ccc(-c2cs[s+]c2)cc1`, the GI50 was > 100 µM (inactive) with MDA-N; > 100 µM (inactive) with NCI-H226; 40.8 µM in the assay with HCT-15; 49.5 µM (inactive) with SW-620; 52.2 µM (inactive) with SR; > 100 µM (inactive) with SF-268. The GI50 in the assay with SN12C was > 100 µM (inactive); in the assay on TK-10, > 100 µM (inactive); in the assay with OVCAR-4 it was > 100 µM (inactive); in the assay on K562 it was 34.2 µM (inactive); with NCI/ADR-RES, > 100 µM (inactive); in the assay with HCT-116, > 100 µM (inactive). The GI50 in the assay on OVCAR-3 was 67 µM (inactive); in the assay on RXF 393 it was > 100 µM (inactive); with T47D it was > 100 µM (inactive); in the assay with MDA-MB-435, > 100 µM (inactive); in the assay on HL-60, 41.9 µM (inactive); with A498, > 100 µM (inactive). Moreover, the GI50 in the assay on PC-3 is > 100 µM (inactive).

`CC(Nc1cc(=O)n(C)c(=O)[nH]1)c1ccccc1` (configuration not stated): the GI50 with MDA-N is > 100 µM (inactive); with HCT-15 it was over 100 µM; in the assay on SW-620 it was > 100 µM (inactive); with SF-539 it was > 100 µM (inactive); in the assay on SR it was > 100 µM (inactive); in the assay with SF-268, > 100 µM (inactive). For the same molecule, the GI50 with SN12C, in the assay on TK-10, with OVCAR-4, in the assay with K562, in the assay on NCI/ADR-RES and in the assay with HCT-116 was > 100 µM (inactive) in each case. Besides, the GI50 in the assay with OVCAR-3, with RXF 393, in the assay with T47D, with MDA-MB-435, with HL-60 and with A498 was > 100 µM (inactive) in each case. In the assay with PC-3, the GI50 was > 100 µM (inactive).

With `CN(C)CN1CSC(=S)N(CN(C)C)C1`, the GI50 in the assay with MDA-N was > 100 µM (inactive); with NCI-H226 it was > 100 µM (inactive); in the assay on HCT-15, over 100 µM; in the assay with SW-620, > 100 µM (inactive); in the assay with SR, 16.8 µM (inactive); in the assay on SF-268, > 100 µM (inactive). The GI50 in the assay with SN12C is > 100 µM (inactive); with TK-10, > 100 µM (inactive); in the assay on OVCAR-4 it was > 100 µM (inactive); in the assay with K562 it was 44.5 µM (inactive); with NCI/ADR-RES, > 100 µM (inactive); in the assay with HCT-116, > 100 µM (inactive). Besides, the GI50 in the assay with OVCAR-3 was > 100 µM (inactive); in the assay on RXF 393 it was > 100 µM (inactive); in the assay on T47D it was > 100 µM (inactive); in the assay with MDA-MB-435, > 100 µM (inactive); in the assay with A498, > 100 µM (inactive); in the assay with PC-3, 16.9 µM (inactive).

`Oc1c2c(c(O)c3ccccc13)C1(N=N2)c2ccccc2Oc2ccccc21`: the GI50 with MDA-N is 6.58 µM (inactive); with HCT-15 it was 2.65 µM; in the assay on SW-620, 3.64 µM (inactive); in the assay with SF-539, 5.74 µM (inactive); with SR it was 3.4 µM (inactive); with SF-268 it was 11.6 µM (inactive). For the same molecule, the GI50 in the assay with SN12C was 6.46 µM (inactive); in the assay on TK-10, 6.98 µM (inactive); in the assay on K562, 9.91 µM (inactive); in the assay on NCI/ADR-RES it was 9.57 µM (inactive); with HCT-116, 3.17 µM (inactive); in the assay with OVCAR-3, 3.01 µM (inactive). The GI50 in the assay with RXF 393 was 1.98 µM (inactive); in the assay on T47D it was 7.55 µM (inactive); with MDA-MB-435, 4.38 µM (inactive); in the assay on HL-60, 7.03 µM (inactive); with A498, 19 µM (inactive); with PC-3, 12.5 µM (inactive).

With `CCOC(=O)c1c(N2CCCC2)[nH]c(=O)c(C(c2ccc(OC)cc2)c2c(O)c(C(=O)OCC)c(N3CCCC3)[nH]c2=O)c1O`, the GI50 in the assay with MDA-N is > 100 µM (inactive); in the assay with NCI-H226, > 100 µM (inactive); with HCT-15 it was over 100 µM; in the assay on SW-620, > 100 µM (inactive); in the assay with SF-539, > 100 µM (inactive); in the assay on SR, 88.9 µM (inactive). Besides, the GI50 in the assay on SF-268 was 49.5 µM (inactive); in the assay on SN12C, > 100 µM (inactive); with TK-10, 42.8 µM (inactive); in the assay with OVCAR-4, > 100 µM (inactive); with K562, > 100 µM (inactive); in the assay on NCI/ADR-RES, > 100 µM (inactive). In addition, the GI50 in the assay on HCT-116 was > 100 µM (inactive); in the assay with OVCAR-3, > 100 µM (inactive); in the assay with RXF 393, 57.3 µM (inactive); in the assay with T47D, > 100 µM (inactive); in the assay on MDA-MB-435, > 100 µM (inactive); in the assay with A498 it was > 100 µM (inactive). Besides, in the assay with PC-3, the GI50 was > 100 µM (inactive).
